Results as given in PubChem BioAssay AID1963841 (Molecular Pharmacology Branch, DTP, NCI, 2024).

Test system: 439559-082-T-J2-PDC spheroid viability
Test: Anticancer human tumor 439559-082-T-J2-PDC patient-derived colon adenocarcinoma cell line growth inhibition [POLQ]
Details: spheroids with HUVEC and MSC; for IC50: curve of first compound; for viability, T/C: stronger effect = lower value
In short: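 Patient-derived tumour cells were co-cultured with HUVEC and mesenchymal stem cells as multicellular spheroids at 37 °C. They were treated with POLQ inhibitors (novobiocin, ART-558, RP6685) alone or combined with other agents. Top concentrations were at or near clinical Cmax (otherwise 10 microM; SN-38 at 1 microM), decreasing in half-log steps.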

[1] = second compound 0.0316 µM, first compound 0.0316 µM
[2] = second compound 0.0316 µM, first compound 0.1 µM
[3] = second compound 0.0316 µM, first compound 0.316 µM
[4] = second compound 0.0316 µM, first compound 1 µM
[5] = second compound 0.0316 µM, first compound 3.16 µM
[6] = second compound 0.0316 µM, first compound 10 µM
[7] = second compound 0.1 µM, first compound 0.0316 µM
[8] = second compound 0.1 µM, first compound 0.1 µM
[9] = second compound 0.1 µM, first compound 0.316 µM
[10] = second compound 0.1 µM, first compound 1 µM
[11] = second compound 0.1 µM, first compound 3.16 µM
[12] = second compound 0.1 µM, first compound 10 µM
[13] = second compound 0.316 µM, first compound 0.0316 µM
[14] = second compound 0.316 µM, first compound 0.1 µM
[15] = second compound 0.316 µM, first compound 0.316 µM
[16] = second compound 0.316 µM, first compound 1 µM
[17] = second compound 0.316 µM, first compound 3.16 µM
[18] = second compound 0.316 µM, first compound 10 µM
[19] = second compound 1 µM, first compound 0.0316 µM
[20] = second compound 1 µM, first compound 0.1 µM
[21] = second compound 1 µM, first compound 0.316 µM
[22] = second compound 1 µM, first compound 1 µM
[23] = second compound 1 µM, first compound 3.16 µM
[24] = second compound 1 µM, first compound 10 µM
[25] = second compound 3.16 µM, first compound 0.0316 µM
[26] = second compound 3.16 µM, first compound 0.1 µM
[27] = second compound 3.16 µM, first compound 0.316 µM
[28] = second compound 3.16 µM, first compound 1 µM
[29] = second compound 3.16 µM, first compound 3.16 µM
[30] = second compound 3.16 µM, first compound 10 µM
[31] = second compound 10 µM, first compound 0.0316 µM
[32] = second compound 10 µM, first compound 0.1 µM
[33] = second compound 10 µM, first compound 0.316 µM
[34] = second compound 10 µM, first compound 1 µM
[35] = second compound 10 µM, first compound 3.16 µM
[36] = second compound 10 µM, first compound 10 µM
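Also: spheroids exposed to compounds for seven days before readout.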
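For viability, T/C in this document: 100% = DMSO vehicle control viability.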

SMILES: COc1cccc2c1C(=O)c1c(O)c3c(c(O)c1C2=O)CC(O)(C(=O)CO)CC3OC1CC(N)C(O)C(C)O1 (stereo unspecified) + Cc1cccc(N(C)C(=O)C2C(O)CCN2c2nc(C)cc(C(F)(F)F)c2C#N)c1
- IC50 (second compound 0.0316 µM): > 10 µM
- IC50 (second compound 0.1 µM): > 10 µM
- IC50 (second compound 0.316 µM): > 10 µM
- IC50 (second compound 1 µM): 9.22 µM
- IC50 (second compound 3.16 µM): 9.74 µM
- IC50 (second compound 10 µM): > 10 µM
- viability, T/C [1]: 99%
- viability, T/C [2]: 87.9%
- viability, T/C [3]: 79.6%
- viability, T/C [4]: 70.5%
- viability, T/C [5]: 60.8%
- viability, T/C [6]: 53.2%
- viability, T/C [7]: 96.2%
- viability, T/C [8]: 92.5%
- viability, T/C [9]: 80.7%
- viability, T/C [10]: 70.2%
- viability, T/C [11]: 62.9%
- viability, T/C [12]: 52.8%
- viability, T/C [13]: 95.2%
- viability, T/C [14]: 94.4%
- viability, T/C [15]: 79.4%
- viability, T/C [16]: 68.2%
- viability, T/C [17]: 63%
- viability, T/C [18]: 51.7%
- viability, T/C [19]: 100%
- viability, T/C [20]: 97.9%
- viability, T/C [21]: 79.6%
- viability, T/C [22]: 70.1%
- viability, T/C [23]: 62.8%
- viability, T/C [24]: 48.2%
- viability, T/C [25]: 96.7%
- viability, T/C [26]: 86.1%
- viability, T/C [27]: 81.2%
- viability, T/C [28]: 70%
- viability, T/C [29]: 56.3%
- viability, T/C [30]: 50.6%
- viability, T/C [31]: 96.2%
- viability, T/C [32]: 81.4%
- viability, T/C [33]: 80.1%
- viability, T/C [34]: 68.2%
- viability, T/C [35]: 63.9%
- viability, T/C [36]: 48.8%

SMILES: Cn1ncnc1[C@H]1c2n[nH]c(=O)c3cc(F)cc(c23)N[C@@H]1c1ccc(F)cc1 + COC1C(OC(N)=O)C(O)C(Oc2ccc3c(O)c(NC(=O)c4ccc(O)c(CC=C(C)C)c4)c(=O)oc3c2C)OC1(C)C
- IC50 (second compound 0.0316 µM): > 0.1 µM
- IC50 (second compound 0.1 µM): > 0.1 µM
- IC50 (second compound 0.316 µM): > 0.1 µM
- IC50 (second compound 1 µM): > 0.1 µM
- IC50 (second compound 3.16 µM): > 0.1 µM
- IC50 (second compound 10 µM): > 0.1 µM
- viability, T/C (second compound 0.0316 µM, first compound 0.000316 µM): 110%
- viability, T/C (second compound 0.0316 µM, first compound 0.001 µM): 95.8%
- viability, T/C (second compound 0.0316 µM, first compound 0.00316 µM): 102%
- viability, T/C (second compound 0.0316 µM, first compound 0.01 µM): 99.8%
- viability, T/C [1]: 99%
- viability, T/C [2]: 95.4%
- viability, T/C (second compound 0.1 µM, first compound 0.000316 µM): 110%
- viability, T/C (second compound 0.1 µM, first compound 0.001 µM): 108%
- viability, T/C (second compound 0.1 µM, first compound 0.00316 µM): 109%
- viability, T/C (second compound 0.1 µM, first compound 0.01 µM): 101%
- viability, T/C [7]: 99.4%
- viability, T/C [8]: 91.1%
- viability, T/C (second compound 0.316 µM, first compound 0.000316 µM): 104%
- viability, T/C (second compound 0.316 µM, first compound 0.001 µM): 102%
- viability, T/C (second compound 0.316 µM, first compound 0.00316 µM): 103%
- viability, T/C (second compound 0.316 µM, first compound 0.01 µM): 102%
- viability, T/C [13]: 94.1%
- viability, T/C [14]: 91.1%
- viability, T/C (second compound 1 µM, first compound 0.000316 µM): 108%
- viability, T/C (second compound 1 µM, first compound 0.001 µM): 97.1%
- viability, T/C (second compound 1 µM, first compound 0.00316 µM): 103%
- viability, T/C (second compound 1 µM, first compound 0.01 µM): 94.2%
- viability, T/C [19]: 99.1%
- viability, T/C [20]: 99%
- viability, T/C (second compound 3.16 µM, first compound 0.000316 µM): 101%
- viability, T/C (second compound 3.16 µM, first compound 0.001 µM): 99.6%
- viability, T/C (second compound 3.16 µM, first compound 0.00316 µM): 102%
- viability, T/C (second compound 3.16 µM, first compound 0.01 µM): 102%
- viability, T/C [25]: 96.5%
- viability, T/C [26]: 93.5%
- viability, T/C (second compound 10 µM, first compound 0.000316 µM): 106%
- viability, T/C (second compound 10 µM, first compound 0.001 µM): 93.3%
- viability, T/C (second compound 10 µM, first compound 0.00316 µM): 108%
- viability, T/C (second compound 10 µM, first compound 0.01 µM): 96%
- viability, T/C [31]: 104%
- viability, T/C [32]: 91%

SMILES: COc1ccc([C@@H](O)c2cc(-c3ncnc4cc(N5CCOCC5)ccc34)c(F)cc2Cl)nn1 + COC1C(OC(N)=O)C(O)C(Oc2ccc3c(O)c(NC(=O)c4ccc(O)c(CC=C(C)C)c4)c(=O)oc3c2C)OC1(C)C
- IC50 (second compound 0.0316 µM): > 10 µM
- IC50 (second compound 0.1 µM): > 10 µM
- IC50 (second compound 0.316 µM): > 10 µM
- IC50 (second compound 1 µM): > 10 µM
- IC50 (second compound 3.16 µM): > 10 µM
- IC50 (second compound 10 µM): > 10 µM
- viability, T/C [1]: 101%
- viability, T/C [2]: 96.5%
- viability, T/C [3]: 99.1%
- viability, T/C [4]: 95.1%
- viability, T/C [5]: 90.7%
- viability, T/C [6]: 77.3%
- viability, T/C [7]: 109%
- viability, T/C [8]: 96.4%
- viability, T/C [9]: 93.5%
- viability, T/C [10]: 95.1%
- viability, T/C [11]: 83.3%
- viability, T/C [12]: 71.7%
- viability, T/C [13]: 107%
- viability, T/C [14]: 101%
- viability, T/C [15]: 92.6%
- viability, T/C [16]: 91.2%
- viability, T/C [17]: 89.9%
- viability, T/C [18]: 74.3%
- viability, T/C [19]: 100%
- viability, T/C [20]: 94%
- viability, T/C [21]: 92.9%
- viability, T/C [22]: 87.9%
- viability, T/C [23]: 86.5%
- viability, T/C [24]: 70.9%
- viability, T/C [25]: 96.6%
- viability, T/C [26]: 91.8%
- viability, T/C [27]: 97.7%
- viability, T/C [28]: 92%
- viability, T/C [29]: 82.3%
- viability, T/C [30]: 79.5%
- viability, T/C [31]: 102%
- viability, T/C [32]: 99.9%
- viability, T/C [33]: 86.5%
- viability, T/C [34]: 86.4%
- viability, T/C [35]: 78%
- viability, T/C [36]: 76.5%
